# Experiments:
# [1] = biological target: T1, IDO1 (Homo sapiens, UniProt P14902); test: IDO1 Human Whole Blood Assay; assay type: cell-based; parameters: Human whole blood was drawn in sodium heparin coated tubes from healthy internal donors; from tissue; host or cells: Human whole blood from healthy donors, stimulated with LPS and IFNγ; conditions: LPS and IFNγ 100 ng/mL, 18 h, kynurenine by LC/MS/MS
# Procedure: IDO1 Human Whole Blood Assay
# Compounds to be tested were serially diluted in ten 3-fold steps in DMSO starting from 10 mM. 3 µL of compound dilutions or DMSO alone were then dispensed from the dilution plate into a polypropylene 96-well assay plate containing 97 µL of RPMI medium using an Echo 555 acoustic liquid handler (Labcyte). LPS (lipopolysaccharide) and IFNγ was prepared in RPMI to a 10× of final conc. (1000 ng/mL), final concentration is 100 ng/mL.
# Human whole blood was drawn in sodium heparin coated tubes from healthy internal donors. 240 µL of blood was transferred to each of the wells of a v-bottom 96 well plate. 30 µL of compound was transferred from intermediate dilution plate, and incubated for 15 min. 30 μL from stimulants was then transferred to blood and mixed thoroughly. Plate was covered with breathable membrane and incubated at 37° C. for overnight (18 h).
# On day 2, isotope labeled standard solutions of kunurenine and tryptophan was made in water at 10× concentration and 30 µL was added to the blood at 3 µM final concentration. The assay plates were centrifuged at 300×G for 10 min with no brake to separate plasma from red blood cells. 60 µL of plasma samples was removed without disturbing red blood cells. Plasma was diluted with RPMI medium in 1:1 ratio and proteins were precipitated out with two volumes of Acetonitrile. The plates were centrifuged at 4000×G for 60 min. 20 µL of supernatant was carefully transferred to a 384 well plate containing 40 µL of 0.1% formic acid in water and analyzed by LC/MS/MS.
# LC/MS/MS analyses were performed using Thermo Fisher's LX4-TSQ Quantum Ultra system. This system consists of four Agilent binary high-performance liquid chromatography (HPLC) pumps and a TSQ Quantum Ultra triple quadrupole MS/MS instrument. For each sample, 5 µL were injected onto an Atlantis T3 column (2.1 mm×150 mm, 3 µm particle size) from Waters. The mobile phase gradient pumped at 0.8 mL/min was used to elute the analytes from the column at 25° C. The elution started at 0% B increasing linearly to 25% B at 6.5 min, holding at 25% for 1 min, re-equilibrating to 10 min. Mobile phase A consisted of 0.1% formic acid in water. Mobile phase B consisted of 0.1% of formic acid in acetonitrile. Data was acquired in positive mode using a HESI interface. The operational parameters for the TSQ Quantum Ultra instrument were a spray voltage of 4000 V, capillary temperature of 380° C., vaporizer temperature 400° C., shealth gas 60 arbitrary units, Aux gas 20 arbitrary units, tube lens 85 and collision gas 1.2 mTorr. SRM (selected-reaction monitoring) chromatograms of kynurenine (Q1: 209.2>Q3:94.0) and internal standard (Q1: 215.3>Q3:98.2) were collected for 90 sec. The peak area was integrated by Xcalibur Quan software. The ratios between the kynurenine generated in the reaction and 2D6-Kynurenine spiked-in internal standard were used to generate percentage inhibition and IC50 values. Compounds were titrated and IC50's were calculated by 4 parameter sigmoidal curve fitting formula.
# [2] = biological target: T1, IDO1; test: IDO1 Cellular Assay in HeLa Cells Stimulated with IFNγ; assay type: cell-based; conditions: IFNγ 100 ng/mL, 300 uM L-tryptophan, about 48 hours, read-out: IDO HeLa Cell Assay, IC50
# Procedure: Biological Assays IDO1 Cellular Assay in HeLa Cells Stimulated with IFNγ
# HeLa cells were cultured in complete HeLa culture medium (90% EMEM, 10% heat-inactivated fetal bovine serum) and expanded to about 1×10^9 cells. The cells were then collected and frozen down at 1×10^7 cells/vial in 1 mL frozen medium (90% complete HeLa culture medium, 10% DMSO).
# Compounds to be tested were serially diluted in ten 3-fold steps in DMSO starting from 10 mM DMSO stocks in Echo low volume plate(s). Compound dilutions or DMSO alone were then dispensed from the dilution plate(s) into Greiner black 384-well assay plate(s) (catalog #781086, 50 nL/well) using an Echo 550 acoustic liquid handler (Labcyte).
# Frozen HeLa cells were thawed and transferred into HeLa assay medium (99% complete HeLa culture medium, 1% Pen/Strep) with 20 mL medium/vial of cells. The cells were spun down at 250 g in a table top centrifuge for 5 min and suspended in same volume of HeLa assay medium. The cells were then counted and adjusted to a density of 2×10^5 cells/mL in HeLa assay medium. Sterile L-tryptophan were added to the cells with final concentration of 300 uM L-tryptophan. A small aliquot (2 mL/plate) of HeLa cells were set aside and were not treated with IFNγ, to serve as the Max-E control.
# HeLa cells with and without IFNγ were dispensed to the respective wells of 384-well assay plates containing the compounds. The plates were incubated for about 48 hours at a 37° C., 5% CO2 incubator. Afterwards, 12 μL of 0.5 M methyl isonipecotate in dimethyl sulfoxide were added into each well and the plates were sealed and incubated at 37° C. without CO2 overnight. The plates were centrifuged for 1 min at 200×g. The resulting fluorescence was measured in a Spectramax plate reader (Molecular Devices) with a 400 nm excitation filter and a 510 nm emission filter.
# The fluorescence intensity of each well was corrected for the background observed in wells with non-IFNγ-treated cells and was expressed as a fraction of the intensity observed in wells of IFNγ-treated cells and DMSO only. Potencies were calculated by linear least squares fit to the four parameter logistic IC50 equation.
# T1 sequence (P14902 whole entry): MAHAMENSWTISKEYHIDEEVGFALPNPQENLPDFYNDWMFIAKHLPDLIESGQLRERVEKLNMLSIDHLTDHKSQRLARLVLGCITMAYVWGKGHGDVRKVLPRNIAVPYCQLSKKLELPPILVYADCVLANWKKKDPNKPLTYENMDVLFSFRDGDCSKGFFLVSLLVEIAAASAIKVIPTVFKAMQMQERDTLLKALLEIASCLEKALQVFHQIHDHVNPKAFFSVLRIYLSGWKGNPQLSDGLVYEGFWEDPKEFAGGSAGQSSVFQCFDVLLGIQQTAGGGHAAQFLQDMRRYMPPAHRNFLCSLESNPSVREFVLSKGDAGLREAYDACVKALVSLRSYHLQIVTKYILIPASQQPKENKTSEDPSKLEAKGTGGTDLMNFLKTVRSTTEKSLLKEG
IC50 [1] [nM],IC50 [2] [nM],Structure (SMILES)
91,1.1,"OCc1cc(C(F)(F)F)ncc1-c1ccc(C2(c3nc4ccc(Cl)cc4[nH]3)CCC2)cc1 [Example 52, [5-{4-[1-(6-chloro-1H-benzimidazol-2-yl)cyclobutyl]phenyl}-2-(trifluoromethyl)pyridin-4-yl]methanol]"
445,2.16,"Cc1cc(OC(F)F)nc(C)c1-c1ccc(C2(c3nc4cc(C(F)(F)F)cnc4[nH]3)COC2)cc1 [Example 42, 2-(3-{4-[6-(difluoromethoxy)-2,4-dimethylpyridin-3-yl]phenyl}oxetan-3-yl)-6-(trifluoromethyl)-3H-imidazo[4,5-b]pyridine]"
284,1.76,"OCc1cc(C(F)(F)F)ncc1-c1ccc(C2(c3nc4ccc(Cl)cc4[nH]3)COC2)cc1 [Example 51, [5-{4-[3-(6-chloro-1H-benzimidazol-2-yl)oxetan-3-yl]phenyl}-2-(trifluoromethyl)pyridin-4-yl]methanol]"
40.3,1.1,"N#Cc1cccc(C(=O)Nc2ccc(C3(c4nc5ccc(C(F)(F)F)cc5[nH]4)CCC3)cc2)c1 [Example 7, 3-cyano-N-(4-{1-[6-(trifluoromethyl)-1H-benzimidazol-2-yl]cyclobutyl}phenyl)benz-amide]"
606,2.81,"COc1cc(C)c(-c2ccc(C3(c4nc5cc(C(F)(F)F)cnc5[nH]4)COC3)cc2)c(C)n1 [Example 43, 2-{3-[4-(6-methoxy-2,4-dimethylpyridin-3-yl)phenyl]oxetan-3-yl}-6-(trifluoromethyl)-3H-imidazo[4,5-b]pyridine]"
